Our source for the IC50 values is patent US7932270B2 (Cytokinetics, Inc., priority 2006, dated 2011).

T1 sequence (P02607 2-151): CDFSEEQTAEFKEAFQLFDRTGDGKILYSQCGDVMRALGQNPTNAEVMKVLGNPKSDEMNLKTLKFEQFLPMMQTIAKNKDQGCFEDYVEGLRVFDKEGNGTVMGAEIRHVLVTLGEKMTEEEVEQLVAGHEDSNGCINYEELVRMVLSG
T1 sequence (P10587 84-789): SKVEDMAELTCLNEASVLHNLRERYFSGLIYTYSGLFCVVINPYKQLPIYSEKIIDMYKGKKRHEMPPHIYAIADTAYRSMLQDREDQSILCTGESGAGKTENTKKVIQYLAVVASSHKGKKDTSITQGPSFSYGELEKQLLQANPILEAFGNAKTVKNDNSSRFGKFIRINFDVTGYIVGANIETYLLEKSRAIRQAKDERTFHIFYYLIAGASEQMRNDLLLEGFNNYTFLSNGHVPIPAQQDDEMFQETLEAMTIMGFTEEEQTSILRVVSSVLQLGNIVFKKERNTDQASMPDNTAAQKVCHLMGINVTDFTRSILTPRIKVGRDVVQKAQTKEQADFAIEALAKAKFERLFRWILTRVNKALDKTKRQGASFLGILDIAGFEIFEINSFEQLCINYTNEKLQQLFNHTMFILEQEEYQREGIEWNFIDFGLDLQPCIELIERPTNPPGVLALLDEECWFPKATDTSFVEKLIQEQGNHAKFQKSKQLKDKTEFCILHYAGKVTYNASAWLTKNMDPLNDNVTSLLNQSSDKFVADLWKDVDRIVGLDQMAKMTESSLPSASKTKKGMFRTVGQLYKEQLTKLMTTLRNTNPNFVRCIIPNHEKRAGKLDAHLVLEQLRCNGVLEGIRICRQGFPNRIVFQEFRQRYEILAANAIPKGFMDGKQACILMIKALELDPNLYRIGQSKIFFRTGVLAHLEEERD

This assay concerns the target T1, chicken gizzard smooth muscle myosin subfragment-1 chemically crosslinked to cardiac or skeletal actin (Gallus gallus, UniProt P10587).
T1 construct: chicken gizzard smooth muscle myosin subfragment-1; from tissue; host or cells: chicken gizzard
The assay can be described thus: Smooth muscle myosin ATPase dose response assay (pyruvate kinase/horseradish peroxidase/pyruvate oxidase-coupled, amplex red fluorescence). It counts as biochemical. The following applies: read-out: IC50 Arithmetic Mean. The essentials: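 Chicken gizzard myosin S1 crosslinked to cardiac or skeletal actin, titrated to a set hydrolysis rate; 0.15 mM ATP, 12 mM PIPES pH 7.00, 100 mM KCl, 2 mM MgCl2. Pyruvate kinase/pyruvate oxidase/HRP coupling with amplex red fluorescence; IC50 from 4-parameter fit.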
As for `NCc1ncccc1CNC(=O)c1cc(F)c(-c2cn[nH]c2)nc1NCCc1cccc(F)c1` [N-{[2-(aminomethyl)(3-pyridyl)]methyl}(5-fluoro-2-{[2-(3-fluorophenyl)ethyl]amino}-6-pyrazol-4-yl(3-pyridyl))carboxamide], the 50% inhibitory concentration (IC50) amounted to 12 nM.
On to `N#Cc1ccccc1-c1ccc(C(=O)N[C@H](CCCCNC(=O)OCc2ccccc2)C(N)=O)c(NCCc2cccc(F)c2)n1` [N-{(1R)-1-carbamoyl-5-[(phenylmethoxy)carbonylamino]pentyl}(6-(2-cyanophenyl)-2-{[2-(3-fluorophenyl)ethyl]amino}(3-pyridyl))carboxamide], for which the 50% inhibitory concentration (IC50) is 58800 nM.
As to `N#Cc1ccccc1-c1ccc(C(=O)NCc2ccc(F)c(F)c2)c(NCCc2cccc(F)c2)n1` [N-[(3,4-difluorophenyl)methyl](6-(2-cyanophenyl)-2-{[2-(3-fluorophenyl)ethyl]amino}(3-pyridyl))carboxamide], the IC50 worked out at 1980 nM.
With `CC[C@H](CNC(=O)c1cc(F)c(-c2cn[nH]c2)nc1NCCc1cccc(F)c1)NC(=O)CN` [N-((1R)-1-{[(5-fluoro-2-{[2-(3-fluorophenyl)ethyl]amino}-6-pyrazol-4-yl(3-pyridyl))carbonylamino]methyl}propyl)-2-aminoacetamide], the half-inhibitory concentration (IC50) amounted to 160 nM.
For `O=C(NCc1cccnc1)c1ccc(-c2ccccn2)nc1NCCc1ccccn1` [N-(3-pyridylmethyl){6-(2-pyridyl)-2-[(2-(2-pyridyl)ethyl)amino](3-pyridyl)}carboxamide], the IC50 was determined as 5380 nM.
Turning to `N#Cc1ccccc1-c1ccc(C(=O)NCc2cccc(C(N)=O)n2)c(NCCc2cccc(F)c2)n1` [6-{[(6-(2-cyanophenyl)-2-{[2-(3-fluorophenyl)ethyl]amino}-3-pyridyl)carbonylamino]methyl}pyridine-2-carboxamide], the concentration for half-maximal inhibition (IC50) was determined as 60 nM.
For `O=C(NCc1cccnc1)c1ccc(-c2ccccc2)nc1NCCc1ccccc1O` [(2-{[2-(2-hydroxyphenyl)ethyl]amino}-6-phenyl(3-pyridyl))-N-(3-pyridylmethyl)carboxamide] the value was 2430 nM; for `CC(=O)N1CC[C@@H](CNC(=O)c2ccc(-c3ccccc3)nc2NCCc2ccccn2)C1` [N-[((3S)-1-acetylpyrrolidin-3-yl)methyl]{6-phenyl-2-[(2-(2-pyridyl)ethyl)amino](3-pyridyl)}carboxamide], 25200 nM; for `CC[C@H](CNC(=O)c1cc(F)c(-c2cnn(C)c2)nc1NCCc1cccc(F)c1)NC(=O)CNC(=O)OC(C)(C)C` [N-((1R)-1-{[(5-fluoro-2-{[2-(3-fluorophenyl)ethyl]amino}-6-(1-methylpyrazol-4-yl)(3-pyridyl))carbonylamino]methyl}propyl)-2-[(tert-butoxy)carbonylamino]acetamide], 3040 nM.
Turning to `O=C(NCc1cccnc1)c1ccc(-c2ccccc2)nc1NCCc1cccc(Cl)c1` [(2-{[2-(3-chlorophenyl)ethyl]amino}-6-phenyl(3-pyridyl))-N-(3-pyridylmethyl)carboxamide], the IC50 worked out at 349 nM.
On to `CC(C)(C)OC(=O)NCc1ncccc1CNC(=O)c1cc(C#N)c(-c2cn[nH]c2)nc1NCCc1cccc(F)c1` [N-[(2-{[(tert-butoxy)carbonylamino]methyl}(3-pyridyl))methyl](5-cyano-2-{[2-(3-fluorophenyl)ethyl]amino}-6-pyrazol-4-yl(3-pyridyl))carboxamide], for which the IC50 amounted to 1000 nM.
With `N#Cc1ccccc1-c1ccc(C(=O)NC[C@H]2CCCN2C(=O)CN)c(NCCc2cccc(F)c2)n1` [N-{[(2R)-1-(2-aminoacetyl)pyrrolidin-2-yl]methyl}(6-(2-cyanophenyl)-2-{[2-(3-fluorophenyl)ethyl]amino}(3-pyridyl))carboxamide], the IC50 is 25 nM.
`Cn1cc(-c2ccc(C(=O)NC[C@H]3CCCN3C(=O)CO)c(NCCc3cccc(F)c3)n2)cn1` [N-{[(2R)-1-(2-hydroxyacetyl)pyrrolidin-2-yl]methyl}(2-{[2-(3-fluorophenyl)ethyl]amino}-6-(1-methylpyrazol-4-yl)(3-pyridyl))carboxamide]: the IC50 was 1780 nM.
For `CN1CCN(C(=O)CN)[C@@H](CNC(=O)c2ccc(-c3ccccc3C#N)nc2NCCc2cccc(F)c2)C1` [N-{[(2S)-1-(2-aminoacetyl)-4-methylpiperazin-2-yl]methyl}(6-(2-cyanophenyl)-2-{[2-(3-fluorophenyl)ethyl]amino}(3-pyridyl))carboxamide] the value was 1280 nM.
In the case of `O=C(NCc1cccnc1)c1ccc(-c2cccc(F)c2)nc1NCCc1ccccn1` [{6-(3-fluorophenyl)-2-[(2-(2-pyridyl)ethyl)amino](3-pyridyl)}-N-(3-pyridylmethyl)carboxamide], the IC50 was determined as 915 nM.
Take `N#Cc1ccccc1-c1ccc(C(=O)NC(CCCN)C(N)=O)c(NCCc2cccc(F)c2)n1` (stereo not drawn) [N-(4-amino-1-carbamoylbutyl)(6-(2-cyanophenyl)-2-{[2-(3-fluorophenyl)ethyl]amino}(3-pyridyl))carboxamide]: the IC50 came to 590 nM.
As for `NCCCN1C(=O)CNC[C@@H]1CNC(=O)c1ccc(-c2cc[nH]n2)nc1NCCc1cccc(F)c1` [N-{[(2R)-1-(3-aminopropyl)-6-oxopiperazin-2-yl]methyl}(2-{[2-(3-fluorophenyl)ethyl]amino}-6-pyrazol-3-yl(3-pyridyl))carboxamide], the IC50 was determined as 9630 nM.
On to `O=C(NCc1cccnc1)c1ccc(-c2ccc(C(F)(F)F)cc2)nc1NCCc1ccccn1` [{2-[(2-(2-pyridyl)ethyl)amino]-6-[4-(trifluoromethyl)phenyl](3-pyridyl)}-N-(3-pyridylmethyl)carboxamide], for which the 50% inhibitory concentration (IC50) came to 2290 nM.
With `CN(CCNC(=O)CNC(=O)c1ccc(-c2ccccc2C#N)nc1NCCc1cccc(F)c1)C(=O)OC(C)(C)C` [N-{2-[(tert-butoxy)-N-methylcarbonylamino]ethyl}-2-[(6-(2-cyanophenyl)-2-{[2-(3-fluorophenyl)ethyl]amino}(3-pyridyl))carbonylamino]acetamide], the IC50 turned out to be 65500 nM.
For the molecule `NCCCn1nccc1CNC(=O)c1ccc(-c2cc[nH]n2)nc1NCCc1cccc(F)c1` [N-{[1-(3-aminopropyl)pyrazol-5-yl]methyl}(2-{[2-(3-fluorophenyl)ethyl]amino}-6-pyrazol-3-yl(3-pyridyl))carboxamide], the IC50 was 462 nM.
For `N#Cc1ccccc1-c1ccc(C(=O)NC[C@H]2CCCN2S(=O)(=O)CCCN)c(NCCc2cccc(F)c2)n1` [N-({(2R)-1-[(3-aminopropyl)sulfonyl]pyrrolidin-2-yl}methyl)(6-(2-cyanophenyl)-2-{[2-(3-fluorophenyl)ethyl]amino}(3-pyridyl))carboxamide] the value was 234 nM.
`N#Cc1ccccc1-c1ccc(C(=O)NC[C@H]2CCCN2C(=O)CCCN)c(NCCC2CCOCC2)n1`: the IC50 came out at 8770 nM.
For `O=C(NCc1cccnc1)c1ccc(-c2cc(F)ccc2Cl)nc1NCCc1cccc(F)c1` [(6-(2-chloro-5-fluorophenyl)-2-{[2-(3-fluorophenyl)ethyl]amino}(3-pyridyl))-N-(3-pyridylmethyl)carboxamide] the value was 1330 nM; for `N#Cc1ccccc1-c1ccc(C(=O)NCc2cncc(CO)c2)c(NCCc2cccc(F)c2)n1` [(6-(2-cyanophenyl)-2-{[2-(3-fluorophenyl)ethyl]amino}(3-pyridyl))-N-{[5-(hydroxymethyl)(3-pyridyl)]methyl}carboxamide], 81 nM.
For the molecule `C[C@H](CNC(=O)c1ccc(-c2ccccc2C#N)nc1NCCc1cccc(F)c1)N(C)C(=O)CNC(=O)OC(C)(C)C`, the half-inhibitory concentration (IC50) is 5920 nM.
As to `N#Cc1ccccc1-c1ccc(C(=O)N[C@H](CN)C(N)=O)c(NCCc2cccc(F)c2)n1` [N-((1R)-2-amino-1-carbamoylethyl)(6-(2-cyanophenyl)-2-{[2-(3-fluorophenyl)ethyl]amino}(3-pyridyl))carboxamide], the IC50 was determined as 538 nM.
As for `COC(=O)[C@@H](C)CNC(=O)c1cc(F)c(-c2cnn(C)c2)nc1NCCc1cccc(F)c1` [methyl (2S)-3-[(5-fluoro-2-{[2-(3-fluorophenyl)ethyl]amino}-6-(1-methylpyrazol-4-yl)(3-pyridyl))carbonylamino]-2-methylpropanoate], the 50% inhibitory concentration (IC50) came to 141 nM.
Then `N#Cc1ccccc1-c1ccc(C(=O)NCc2ccccc2CN)c(NCCc2cccc(F)c2)n1` [N-{[2-(aminomethyl)phenyl]methyl}(6-(2-cyanophenyl)-2-{[2-(3-fluorophenyl)ethyl]amino}(3-pyridyl))carboxamide], with 24 nM.
As for `N#Cc1ccccc1-c1ccc(C(=O)NC[C@@H](CN)NC(=O)CN)c(NCCc2cccc(F)c2)n1` [N-((1R)-2-amino-1-{[(6-(2-cyanophenyl)-2-{[2-(3-fluorophenyl)ethyl]amino}(3-pyridyl))carbonylamino]methyl}ethyl)-2-aminoacetamide], the half-inhibitory concentration (IC50) turned out to be 12600 nM.
For `CC(C)(C)OC(=O)NCCCNC(=O)CNC(=O)c1ccc(-c2ccccc2C#N)nc1NCCc1cccc(F)c1` [N-{3-[(tert-butoxy)carbonylamino]propyl}-2-[(6-(2-cyanophenyl)-2-{[2-(3-fluorophenyl)ethyl]amino}(3-pyridyl))carbonylamino]acetamide] the value was 9880 nM.
For `COCCN[C@H](C)CNC(=O)c1cc(F)c(-c2cnn(C)c2)nc1NCCc1cccc(F)c1` [N-{(2R)-2-[(2-methoxyethyl)amino]propyl}(5-fluoro-2-{[2-(3-fluorophenyl)ethyl]amino}-6-(1-methylpyrazol-4-yl)(3-pyridyl))carboxamide] the value was 2330 nM.
For the molecule `O=C(NCc1cccnc1)c1ccc(-c2ccccc2)nc1NCCCn1ccnc1` [{2-[(3-imidazolylpropyl)amino]-6-phenyl(3-pyridyl)}-N-(3-pyridylmethyl)carboxamide], the IC50 was found to be 30300 nM.
With `CN1CCC(CCNc2nc(-c3ccccc3)ccc2C(=O)NCc2cccnc2)CC1` [(2-{[2-(1-methyl(4-piperidyl))ethyl]amino}-6-phenyl(3-pyridyl))-N-(3-pyridylmethyl)carboxamide], the IC50 amounted to 20100 nM.
